Our source for the EC50 and Kd values is BindingDB's records for doi:10.1074/jbc.M702153200 (University of Bern, 2007).

The target of assay [1] is Gamma-aminobutyric acid receptor subunit alpha-1 (Rattus norvegicus) (UniProt P62813). As to the kind of experiment: Activity at rat wild type GABAA alpha-1-beta-2-gamma-2 receptor expressed in xenopus oocytes assessed as GABA-elicited response by two electrode voltage clamp method relative to control.
Assay [2] is described as follows: Displacement of [3H]Ro15-1788 from rat GABAA alpha-1-beta-2-gamma-2 receptor expressed in HEK293 cells after 1 hr assessed as residual binding by liquid scintillation counting. On the technique in general: Loss of bound radioactivity is the signal in a displacement assay; it reports binding, not function.

SMILES strings stand for the structures.

Chain of Gamma-aminobutyric acid receptor subunit alpha-1 (Rattus norvegicus) (P62813 whole entry, looked up): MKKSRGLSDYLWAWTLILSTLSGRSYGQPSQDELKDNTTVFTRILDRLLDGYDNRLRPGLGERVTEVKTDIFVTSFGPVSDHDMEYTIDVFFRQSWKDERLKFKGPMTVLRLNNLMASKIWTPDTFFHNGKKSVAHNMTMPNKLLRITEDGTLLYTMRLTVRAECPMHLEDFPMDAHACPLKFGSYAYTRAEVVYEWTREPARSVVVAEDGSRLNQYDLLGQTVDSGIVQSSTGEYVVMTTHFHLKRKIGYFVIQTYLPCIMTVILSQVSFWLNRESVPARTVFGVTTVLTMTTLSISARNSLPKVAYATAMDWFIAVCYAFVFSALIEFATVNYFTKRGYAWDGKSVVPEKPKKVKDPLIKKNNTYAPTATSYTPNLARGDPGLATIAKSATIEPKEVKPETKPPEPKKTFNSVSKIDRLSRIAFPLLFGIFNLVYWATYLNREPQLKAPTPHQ

For the compound `CCOC(=O)c1ncn2c1CN(C)C(=O)c1cc(N=[N+]=[N-])ccc1-2` [RO-154513], the half-maximal effective concentration (EC50) in assay [1] was determined as 1.1 nM. As to `CCOC(=O)c1ncn2c1CN(C)C(=O)c1cc(N=C=S)ccc1-2` [8-Isothiocyanato-5-methyl-6-oxo-5,6-dihydro-4H-2,5,10b-triaza-benzo[e]azulene-3-carboxylic acid ethyl ester], in assay [2], the Kd was determined as 878 nM. The 50% effective concentration (EC50) in assay [1] worked out at 250 nM.

As usually defined, the EC50 is the concentration at which the effect is half-maximal. One may read the Kd as the concentration at which binding is half-saturated.
